# In ChEMBL document CHEMBL3507680, “University of Dundee, Gates Library screen for HepG2 cell viability”:
# Assay: Human HepG2 cell viability assay in 384 well format
# Format: toxicity, cell-based
# Set-up: dose 125 nL, time 70.5 hour; cytotoxicity at 70.5 h: concentration not given beside the values
# Settings: HepG2 cells, read-out: Inhibition
row,Structure (SMILES),cytotoxicity at 70.5 h [%]
1,CN(C)C(CNCc1nc(-c2ccsc2)no1)c1ccco1 (configuration not stated),-16.8
2,CCc1cc(NCc2cccnc2N2CCCCC2)n2ncnc2n1,0.666
3,CCOc1cccc(C(C)NC(=O)N2CCC3(CC2)OCCO3)c1 (configuration not stated),-13.2
4,O=C(Cc1cccs1)N1CCC2(CCCN(CC3CCOCC3)C2)C1 (configuration not stated),-6.08
5,CN(C)c1ncccc1CNC(=O)N1CCCC1CN1CCCCC1 (configuration not stated),-32
6,O=C(c1cnccn1)N1CCN2C[C@H](Oc3cccnc3)C[C@H]2C1,4.06
7,COc1ccc(CN2CCCC2)cc1Oc1ccc2c(c1)CC(CN)O2 (configuration not stated),-11.3
8,Cc1nc2ncnn2c2ccn(-c3cccnc3O)c(=O)c12,-15.9
9,O=C(Nc1cccnc1)Nc1ccn(CC(F)F)n1,7.38
10,COc1ccc(CN2C[C@@H]3CC[C@H](C2)N(S(C)(=O)=O)C3)cc1,-7.94
11,Cc1ccc(CN2CC[C@@H](O)[C@@H]2Cc2cnn(C)c2)o1,-10.4
12,CN(Cc1cccnc1)C1CC2(CCN(Cc3cccnc3)CC2)C1,-13.8
13,Cc1cc(C)n(CC2CCCN2C(=O)CCc2ccncc2)n1 (configuration not stated),-6.13
14,Cc1ccc(-n2ncc(C(=O)NC3CCCCC3)c2N)cc1,-2.62
15,CS(=O)(=O)CC(=O)N1C[C@H]2CCC[C@@]2(COCc2ccncc2)C1,-3.98
16,O=C(c1sccc1C1CC1)N1CCCN(c2cccnn2)CC1,-7.16
17,CC(=O)N(Cc1ncc(C(C)C)o1)C1CCN(Cc2nccn2C)C1 (configuration not stated),-0.826
18,CN(Cc1ccncc1)C1COC2(CCN(Cc3cccs3)CC2)C1 (configuration not stated),-12.7
19,CC(C)c1cc(N2CCSCC2)n2nccc2n1,19.1
20,CN(C)Cc1cnc2n1CCN(C(=O)NCc1ccccc1)CC2,4.32
21,Cn1ncc(C(=O)N2CCCC(n3cccn3)C2)c1C1CC1 (configuration not stated),-4.62
22,CNC(=O)CCCNCc1c(C)nn(C)c1N(C)C,-1.74
23,O=C(Cn1nc2ccccc2n1)N1CCCC(O)(CN2CCCC2)C1 (configuration not stated),13.9

row,Structure (SMILES),cytotoxicity at 70.5 h [%]
1,Cc1cnn(CC2CCCN2C(=O)c2sccc2-n2cnnn2)c1 (configuration not stated),-4.41
2,O=C(C1CCCO1)N1CCCn2c(nnc2Cn2cccc2)C1 (configuration not stated),-11.4
3,Cc1ccc2nc(CN3CCCC3c3cccnc3)cc(O)c2c1 (configuration not stated),-2.21
4,O=C(c1ccccn1)N1CC[C@H]2[C@H]1CCN2S(=O)(=O)C1CC1,6.25
5,CCOc1ccccc1CCNC(=O)NCC(O)c1cccs1 (configuration not stated),-4.36
6,NS(=O)(=O)c1cnn(-c2ccc(NC(=O)CC3CCCC3)cn2)c1,-5.14
7,CC(=O)N1CCN(c2cc(CCN)nc(C3CC3)n2)CC1,-1.97
8,Cc1ccc(CN2CCCn3cnc(COCC4CC4)c3C2)o1,-1.19
9,O=c1ccc2c(n1CC1CCOCC1)CCN(Cc1ccoc1)CC2,49.3
10,CCc1nccn1-c1cncc(C2CCN(C(=O)COC)CC2)n1,-6.24
11,Cc1ccc(C(=O)NCCNS(C)(=O)=O)c(=O)[nH]1,-3.54
12,Cc1cc(C)n(C2CCCN(C(=O)CCOc3ccccc3F)C2)n1 (configuration not stated),-9.17
13,Cc1ccc(CN2Cc3nccn3CC(Cn3cncn3)C2)s1 (configuration not stated),-1.32
14,c1ccc(-c2nc3c(c(NCCn4cccc4)n2)CCNCC3)nc1,-14.1
15,O=c1cc(Cn2cncn2)nc2n1CCCN(CC1CC1)C2,-33
16,OC(c1ccccn1)C1CCN(Cc2cc3n(n2)CCNC3)CC1 (configuration not stated),17.1
17,Clc1cccc(Cl)c1-c1nnc(CNCCn2cccn2)o1,-4.1
18,CN(CC(=O)NC(Cc1ccccc1)C1CCCC1)S(C)(=O)=O (configuration not stated),-3.31
19,CC(=O)N1CCc2c(nc(-c3ccncc3)nc2N(C)CC(O)CO)C1 (configuration not stated),-9.59
20,CCCNS(=O)(=O)Cc1ccc(Br)cc1,-7.66
21,CN(C)c1ncnc2c1CCN(CC1CCOC1)CC2 (configuration not stated),-14.4
22,COc1cccc(OC)c1OCCN1C(=O)CCNC1=O,26.5
23,O=C(CS(=O)(=O)Cc1ccccc1)NC1CCCCNC1=O (configuration not stated),12.6

row,Structure (SMILES),cytotoxicity at 70.5 h [%]
1,CC(C)CO[C@H]1CN(S(=O)(=O)c2cn(C)cn2)[C@@H]2CCCO[C@H]12,18
2,CCc1ccc(C(NC(=O)CCS(C)(=O)=O)C(C)(C)C)o1 (configuration not stated),-8.82
3,Cc1cc(NC(=O)Cc2ccccc2O)cnc1N1CCCCC1,-12.3
4,O=C(CCc1c(F)cccc1F)N1CCCCC1Cn1cccn1 (configuration not stated),1.38
5,COc1ccc(C2CN(c3nc(C)cc(C)n3)CCN2C(C)=O)cc1 (configuration not stated),-4.4
6,O=C(CCc1nnc(-c2ccccc2)o1)N1CCCC1c1ccc[nH]1 (configuration not stated),-3.43
7,CC(=O)N(Cc1ncc(C(C)C)o1)C1CCN(CCn2cncn2)C1 (configuration not stated),-3.83
8,COC(=O)CCNC(=O)c1nc(NS(=O)(=O)c2ccccc2)sc1C,-23
9,CCc1noc(CN(C)C2CCN(c3sccc3C#N)C2=O)n1 (configuration not stated),-2.79
10,CC(C#N)CSc1ccccc1NCC(=O)NCc1ccccc1 (configuration not stated),4.47
11,CS(=O)(=O)N1CC[C@H]2[C@H](C[C@@H](Cn3cncn3)N2CC2CC2)C1,-1.14
12,CN1CC2(CCNCC2)COc2ccccc2S1(=O)=O,-2.93
13,CS(=O)(=O)N1CCC(C(=O)N2CCOc3ccccc32)CC1,-5.71
14,Cc1ccc(CNCC2CCc3nnc(C(C)C)n3C2)s1 (configuration not stated),-6.69
15,CCc1ccc(C2CCCCCN2C(=O)CNC(=O)NC2CC2)o1 (configuration not stated),-1.33
16,O=C(O)CN1CCC(F)(F)C2(CCN(c3ccccc3)C2)C1 (configuration not stated),-5.61
17,CC1=Nc2c(c(O)nn2C(C)C)C(c2cn(C)nc2C)S1 (configuration not stated),21
18,O=C(c1ccco1)N1CCC2(CCOC2)C1 (configuration not stated),-13.3
19,COCCOc1ncccc1CNC(=O)N1CCCCCC1,-12.7
20,Cc1nc(C)n(C2CCCN(C(=O)c3cncnc3C)C2)n1 (configuration not stated),2.45
21,CCn1c(N)nc2cc(C(=O)NCc3cccc(C)c3C)cnc21,17.1
22,CC1CN(CC(=O)NC2CCCC2)CCN1c1ccc2nncn2n1 (configuration not stated),-20.8
23,Cc1csc2c(C3CCCN(C(=O)CCCn4cncn4)C3)nc(C)n12 (configuration not stated),2.61

row,Structure (SMILES),cytotoxicity at 70.5 h [%]
1,COCCN1CCOCC12CCN(c1ccc(C#N)cc1)CC2,-0.11
2,CN(C)S(=O)(=O)NCC1OCCc2cn(CC3CCOCC3)nc21 (configuration not stated),13.8
3,CCc1nnc(CN(C)c2nc(C(C)C)nc3c2cnn3C)o1,-5.57
4,CCc1cnc(CNC(=O)NC2CC(C)(C)OC2(C)C)s1 (configuration not stated),12.1
5,CCn1ncc(S(=O)(=O)NC2(CN3CCOCC3)CCCCC2)c1C,-4.76
6,CCCC(C)CS(=O)(=O)NCCc1csc(N2CCCC2)n1 (configuration not stated),-2.73
7,CS(=O)(=O)NCCNC(=O)Cc1ccc(Br)s1,-3.17
8,Cc1c(F)cc(C(=O)O)cc1S(=O)(=O)Nc1ccc(C#N)cc1,19.6
9,CC(=O)N1CC[C@@H]2CN(Cc3cccc(Cl)c3)S(=O)(=O)[C@@H]2CC1,-1.91
10,Cc1ccc(S(=O)(=O)N(CC2CCOC2)C2CC2)cc1N(C)C (configuration not stated),0.338
11,Cc1cc(CN2CC[C@@H]3O[C@@H](c4nnc(C)o4)C[C@H]3C2)no1,-3.3
12,Cn1cc(CNC[C@H]2Cn3ccnc3CO2)c2ccccc21,-5.61
13,CCOC(=O)COc1nc(CC(C)C)c2c(c1C#N)CCC2,1.02
14,COc1ccc(CNc2c(C)cnc3c2c(=O)n(C)c(=O)n3C)cc1,7.6
15,CC(C)C(=O)N1CCC([C@@H]2C[C@H](C(F)F)n3ncnc3N2)CC1,9.09
16,CS(=O)(=O)N1C[C@@H]2CC[C@H](C1)N(C(=O)Cn1ccc3ccccc31)C2,-4.09
17,COc1cc(CNc2cnn(C(C)(C)C)c(=O)c2Cl)ccn1,1.57
18,O=C(CO)N1CCC(F)(F)C2(CCN(c3ccccc3)C2)C1 (configuration not stated),1.4
19,Cc1ccccc1C(=O)NC1CCN(Cc2ncc(C(C)(C)C)o2)CC1,-0.562
20,CC(CN1CCN(C)CC1)NC(=O)c1cc(Cl)c2c(c1)OCO2 (configuration not stated),-0.705
21,COCc1ncn(Cc2nc(-c3ccc(OC)c(OC)c3)oc2C)n1,27.5
22,Cc1ccc(C(=O)N2CCC(O)(CN3CCc4ccccc4C3)C2)s1 (configuration not stated),-2.78
23,CC(CN(C)C)Nc1nc(O)cc(Cc2ccccc2F)n1 (configuration not stated),4.28

row,Structure (SMILES),cytotoxicity at 70.5 h [%]
1,CCSc1cc(C(=O)NC2CCN(C(=O)c3ccccc3)CC2)ccn1,-17.6
2,Cn1c(=O)oc2ccc(S(=O)(=O)N3CCC(c4ccccc4)C3)cc21 (configuration not stated),28.3
3,CC(C)c1noc(CCC(=O)Nc2cc(F)ccc2F)n1,12.9
4,CC1CCC(N2CCC(NS(=O)(=O)CCOC(C)C)CC2)CC1 (configuration not stated),14.8
5,COc1cc(C(=O)N2CCC(O)(CN3CCOCC3)C(C)(C)C2)ccn1 (configuration not stated),-0.646
6,Cc1nc(CN2CCCN(CC(=O)N(C)CCC#N)CC2)no1,-9.21
7,CN(C)CCNC(=O)[C@H]1C[C@H]2CN(c3ncccn3)C[C@H]2N1C,-2.47
8,O=C(c1ccnnc1)N1CCN(Cc2cccnc2)c2ncccc2C1,-8.62
9,CC(C)c1nccn1CCCNC(=O)c1ccc(-c2cnn(C)c2)nc1,-5.24
10,CC(=O)N1CCn2c(nnc2C2CCCCN2C(C)=O)C1 (configuration not stated),-4.85
11,Cc1ccc(C(=O)N2CCN(C(=O)Cc3ccccn3)CC2)c(C)c1,-5.32
12,COc1cccc(C)c1C(=O)N1C[C@@H](CN(C)C)[C@@H](CO)C1,-4.7
13,Cn1ncc(C2CC(=O)NCc3nc4sccn4c32)c1C1CC1 (configuration not stated),-12.3
14,COc1ccc2c(c1)C1(CCN(Cc3ccccn3)CC1)N(C)CC2,0.00866
15,c1cnc(N2CCC3(CCN(CC4CCOCC4)CC3)C2)nc1,0.659
16,CC(C)c1ccc(-c2nonc2N)cc1,1.97
17,CCc1ccc(CN2CCC3(CC2)CN(c2cnn(C)c2)C(=O)CO3)o1,-8.17
18,Cn1cc(N2CCC3(CCN(S(=O)(=O)C4CC4)C3)C2=O)cn1 (configuration not stated),4.38
19,Cc1ccccc1C(=O)Nc1cnn(CC(=O)NC2CCCC2)c1,-3.04
20,COCc1ncc(CN2CC[C@@](C)(O)[C@@H](Cc3ccccc3)C2)cn1,-1.9
